Values after ≈ are worked out from the molar mass of the structure shown. Like-named read-outs stand apart in the source and are kept apart here.
Columns and labels:
[1] = tested on: Puccinia recondita; test: in vivo fungicide screen: wheat leaf rust (WLR); conditions: for % compared to control, WLR: 100 ppm, foliar spray before infection
[2] = tested on: Erysiphe graminis; test: in vivo fungicide screen: wheat powdery mildew (WPM); conditions: for % compared to control, WPM: 100 ppm, foliar spray before infection
[3] = tested on: Cladosporium herbarum; test: ED50 on fungi, mycelial growth on V-8 juice agar: Cladosporium herbarum; format: cell-based; conditions: Example 2, 72 hrs, read-out: ED50 concentration, CH
[4] = tested on: green foxtails; test: herbicide screening: green foxtails; conditions: in vivo
Description: (§1) As noted above the compounds are ineffective as herbicides against one or more of the following weeds: average dicots, cocklebur, morning glory, pigweed, smartweed, velvet leaf, average monocots, barnyard grass, green foxtail, johnson grass, yellow nutsedge and the wild oat in both pre-emergent and post-emergent screening tests, at application rates of 2 lbs/acre for Compound 4, and 4 lbs/acre for Compound 5.

[5] = tested on: haploid lab strain from Yeast I; test: ED50 on yeast, liquid nutrient medium: Yeast II; format: cell-based; conditions: Saccharomyces cerevisiae, 48 h, read-out: ED50 concentration, Yeast-II
[6] = tested on: wild oat; test: herbicide screening: wild oat; conditions: in vivo
Description: as §1

[7] = tested on: average monocots; test: herbicide screening: average monocots; conditions: in vivo
Description: as §1

[8] = tested on: smartweed; test: herbicide screening: smartweed; conditions: in vivo
Description: as §1

[9] = tested on: barnyard grass; test: herbicide screening: barnyard grass; conditions: in vivo
Description: as §1

[10] = tested on: Xanthomonas campestris pv. carotae; test: ED50 on bacteria, liquid nutrient medium: X. campestris pv. carotae; format: cell-based; conditions: 48 h, read-out: ED50 concentration, X.C. pv. carotae
[11] = tested on: Xanthomonas campestris pv. campestris; test: ED50 on bacteria, liquid nutrient medium: X. campestris pv. campestris; format: cell-based; conditions: 48 h, Example 7, two days, read-out: ED50 concentration, X.C. pv. campestris
[12] = tested on: Pellicularia filamentosa; test: in vivo fungicide screen: rice sheath blight (RSB); conditions: for % compared to control, RSB: 100 ppm, foliar spray before infection
[13] = tested on: Alternaria brassicicola; test: ED50 on fungi, mycelial growth on V-8 juice agar: Alternaria brassicicola; format: cell-based; conditions: Example 4, 72 hrs, read-out: ED50 concentration, AB
[14] = tested on: velvet leaf; test: herbicide screening: velvet leaf; conditions: in vivo
Description: as §1

[15] = tested on: weeds; test: pre-emergent and post-emergent herbicide screening tests; format: in vivo
Description: as §1

[16] = tested on: Pyrenochaeta terrestris; test: ED50 on fungi, mycelial growth on V-8 juice agar: Pyrenochaeta terrestris; format: cell-based; conditions: Setophoma terrestris, Example 5, 72 hrs, read-out: ED50 concentration, PT
[17] = tested on: cockleburr; test: herbicide screening: cocklebur; conditions: in vivo
Description: as §1

[18] = tested on: Alternaria chrysanthemi; test: ED50 on fungi, mycelial growth on V-8 juice agar: Alternaria chrysanthemi; format: cell-based; conditions: Example 6, 72 hrs, read-out: ED50 concentration, AC
[19] = tested on: Agrobacterium tumefaciens; test: ED50 on bacteria, liquid nutrient medium: Agrobacterium tumefaciens; format: cell-based; conditions: 48 h, Example 9, two days, read-out: ED50 concentration, AT
[20] = tested on: Rhizobium japonicum; test: ED50 on bacteria, liquid nutrient medium: Rhizobium japonicum; format: cell-based; conditions: Bradyrhizobium japonicum, 48 h, Example 10, two days, read-out: ED50 concentration, RJ
[21] = tested on: yellow nutsedge; test: herbicide screening: yellow nutsedge; conditions: in vivo
Description: as §1

[22] = tested on: Piricularia oryzae; format: in vivo
[23] = tested on: morning glory; test: herbicide screening: morning glory; conditions: in vivo
Description: as §1

[24] = tested on: Saccharomyces cerevisiae from Universal Foods; test: ED50 on yeast, liquid nutrient medium: Yeast I; format: cell-based; conditions: 48 h, read-out: ED50 concentration, Yeast-I
[25] = tested on: Helminthosporium carbonum; test: ED50 on fungi, mycelial growth on V-8 juice agar: Helminthosporium carbonum; format: cell-based; conditions: Bipolaris zeicola, Example 3, 72 hrs, read-out: ED50 concentration, HC
[26] = tested on: Pseudoperonospora cubensis; test: in vivo fungicide screen: cucumber downy mildew (CDM); conditions: for % compared to control, CDM: 100 ppm, foliar spray before infection
[27] = tested on: johnson grass; test: herbicide screening: johnson grass; conditions: in vivo
Description: as §1

[28] = tested on: Phytophtora infestans; format: in vivo
[29] = tested on: pigweed; test: herbicide screening: pigweed; conditions: in vivo
Description: as §1

[30] = tested on: average dicots; test: herbicide screening: average dicots; conditions: in vivo
Description: as §1

[31] = tested on: fish; conditions: in vivo; cited from earlier work
[32] = tested on: mexican bean beetle; test: insecticide activity: mexican bean beetle; format: in vivo; conditions: 150 to 600 ppm
[33] = tested on: southern armyworm; test: insecticide activity: southern armyworm; format: in vivo; conditions: 150 to 600 ppm
[34] = tested on: Xanthomonas campestris; test: activity on Xanthomonas campestris; format: cell-based
[35] = tested on: signal grass; test: herbicide screening: signal grass; conditions: in vivo
[36] = tested on: two-spotted spider mite; test: insecticide activity: two-spotted spider mite; format: in vivo; conditions: 150 to 600 ppm
[37] = tested on: southern root knot nematode; test: insecticide activity: southern root knot nematode; format: in vivo; conditions: 150 to 600 ppm
[38] = tested on: southern corn rootworm; test: insecticide activity: southern corn rootworm; format: in vivo; conditions: 150 to 600 ppm
[39] = tested on: green peach aphid; test: insecticide activity: green peach aphid; format: in vivo; conditions: 150 to 600 ppm
[40] = tested on: apples; conditions: in vivo; cited from earlier work
[41] = tested on: flour beetles; conditions: in vivo; cited from earlier work
[42] = tested on: houseflies; conditions: in vivo; cited from earlier work
[43] = tested on: cockroaches; conditions: in vivo; cited from earlier work
[44] = 100 ppm, foliar spray before infection

In the case of `C=CCc1cc(OC)c(OC)c2c1OCO2` [Compound 5, 4,5-dimethoxy-2,3-methylenedioxy-1-allyl benzene], the “% compared to control, WLR” value [1] is reported as 0%, the “effectiveness against wheat leaf rust” value ([1]; in vivo) is reported as “substantially ineffective” and the “% compared to control, WPM” value [2] is reported as 95%. The IC50 [3] was 16 µg/mL (≈ 72 µM), the “herbicide effect, green foxtails” value [4] was “ineffective” and the IC50 [5] was greater than 500 µg/mL. The “herbicide effect, wild oat” value [6] was “ineffective”, the “herbicide effect, average monocots” value [7] was “ineffective” and the “herbicide effect, smartweed” value [8] was “ineffective”. For the same compound, the “herbicide effect, barnyard grass” value [9] was “ineffective”, the IC50 [10] was 10 µg/mL (≈ 45 µM) and the IC50 [11] was 10 µg/mL (≈ 45 µM). For the same compound, the “% compared to control, RSB” value [12] was 0%, the “effectiveness against rice sheath blight” value ([12]; in vivo) was “substantially ineffective” and the IC50 [13] was 8 µg/mL (≈ 36 µM). For the same compound, the “herbicide effect, velvet leaf” value [14] was “ineffective”, the “herbicide effect against one or more of the listed weeds” value ([15]; 4 lbs/acre) was “ineffective” and the IC50 [16] was 10 µg/mL (≈ 45 µM). For the same compound, the “herbicide effect, cockleburr” value [17] was “ineffective”, the IC50 [18] was 10 µg/mL (≈ 45 µM) and the IC50 [19] was greater than 200 µg/mL. The IC50 [20] was greater than 500 µg/mL, the “herbicide effect, yellow nutsedge” value [21] was “ineffective” and the “% compared to control, RB” value ([22]; in vivo) was 0%. For the same compound, the “effectiveness against rice blast” value ([22]; in vivo) was “substantially ineffective”, the “herbicide effect, morning glory” value [23] was “ineffective” and the IC50 [24] was greater than 500 µg/mL. The IC50 [25] was 16 µg/mL (≈ 72 µM), the “% compared to control, CDM” value [26] was 0% and the “effectiveness against cucumber downy mildew” value ([26]; in vivo) was “substantially ineffective”. For the same compound, the “herbicide effect, johnson grass” value [27] was “ineffective”, the “% compared to control, TLB” value ([28]; in vivo) was 0% and the “effectiveness against tomato leaf blight” value ([28]; in vivo) was “substantially ineffective”. For the same compound, the “herbicide effect, pigweed” value [29] was “ineffective” and the “herbicide effect, average dicots” value [30] was “ineffective”.

In the case of `CC(C)(C)C(=O)C(Oc1ccc(Cl)cc1)n1cncn1` (stereo not drawn) [BAYLETON], the “activity preventing infection of wheat by Erysiphe graminis” value (“activity preventing infection of wheat” for short) ([2]; in vivo) is listed as 100% and the toxicity to fish [31] is listed as “toxic to fish”.

With `C=CCc1cc(OC)c(O)c2c1OCO2` [Compound 4, 6-methoxy-2,3-methylenedioxy-4-allyl phenol] the “% compared to control, WLR” value [1] was 0%, the “% compared to control, WPM” value [2] was 75% and the IC50 [3] was 16.5 µg/mL (≈ 79.2 µM). The “herbicide effect, green foxtails” value [4] was “ineffective”, the IC50 ([5]; Example 12, liquid medium, two days) was greater than 500 µg/mL and the “herbicide effect, average monocots” value [7] was “ineffective”. The “insecticide activity, mexican bean beetle” value [32] was “ineffective”, the “insecticide activity, southern armyworm” value [33] was “ineffective” and the “effect on Xanthomonas campestris” value [34] was “effective”. The “herbicide effect, signal grass” value [35] was “ineffective”, the “insecticide activity, two-spotted spider mite” value [36] was “ineffective” and the IC50 [11] was 10 µg/mL (≈ 48 µM). The “% compared to control, RSB” value [12] was 0%, the IC50 [13] was 8 µg/mL (≈ 38.4 µM) and the “herbicide effect, velvet leaf” value [14] was “ineffective”. For the same compound, the “herbicide effect against one or more of the listed weeds” value ([15]; 2 lbs/acre) was “ineffective”, the IC50 [16] was 10 µg/mL (≈ 48 µM) and the IC50 [18] was 10 µg/mL (≈ 48 µM). The IC50 [19] was greater than 200 µg/mL, the “insecticide activity, southern root knot nematode” value [37] was “ineffective” and the IC50 [20] was greater than 500 µg/mL. The “% compared to control, RB” value [22, 44] was 0%, the “insecticide activity, southern corn rootworm” value [38] was “ineffective” and the IC50 ([24]; Example 11, liquid medium, two days) was greater than 500 µg/mL. The IC50 [25] was 18 µg/mL (≈ 86.4 µM), the “% compared to control, CDM” value [26] was 0% and the “% compared to control, TLB” value [28, 44] was 0%. The “herbicide effect, pigweed” value [29] was “ineffective”, the “insecticide activity, green peach aphid” value [39] was “ineffective” and the “herbicide effect, average dicots” value [30] was “ineffective”.

In the case of `CCCCNC(=O)n1c(NC(=O)OC)nc2ccccc21` [BENOMYL, methyl 1-(butylcarbamoyl)-2-benzimidazolecarbonate], the “activity preventing infection of wheat” value ([2]; in the range of 38-300 ppm) is given as 100%, the toxicity to fish [31] is given as “toxic to fish” and the “fruit finish of apples” value [40] is given as “apples do not express fine fruit finish”.

For `CCCc1cc2c(c(OC)c1OC)OCO2` [propyl analog of dillapiole], the “synergic with pyrethrins against flour beetles” value [41] is given as “effective synergic”, the “synergic with pyrethrins against houseflies” value [42] is given as “effective synergic” and the “synergic with pyrethrins against cockroaches” value [43] is given as “effective synergic”.

In the case of MANCOZEB, the “activity preventing infection of wheat” value ([2]; at up to 300 ppm) is reported as 0%.

For `CCOP(=O)(Sc1ccccc1)Sc1ccccc1` [EDIFENPHOS, O-ethyl-S,S-diphenyl-dithiophosphate], the “activity preventing infection of wheat” value ([2]; in the range of 75-300 ppm) is given as 100% and the toxicity to fish [31] is given as “toxic to fish”.

For `C=CCOC1=NS(=O)(=O)c2ccccc21` [ORYZEMATE], the “activity preventing infection of wheat” value ([2]; at up to 300 ppm) was 0%.

In the case of `CC(C)OC(=O)C(C(=O)OC(C)C)=C1SCCS1` [FUJI-ONE, diissopropyl-1,3-dithiolau-2-ylidane malonate], the “activity preventing infection of wheat” value ([2]; at up to 300 ppm) is reported as 0%.
